“Also recorded” adds a separate entry of the source.
Tested on: Dsg2^mut/mut mice
Assay: Cytokine arrays, cytokine expression in hearts of Dsg2^mut/mut mice treated with Bay 11-7082
Assay type: in vivo
Text: Quantitative data (mean±SEM; n=5) for expression of selected cytokines in hearts of vehicle-treated wildtype (WT) mice, Dsg2^mut/mut mice and Dsg2^mut/mut mice treated with Bay 11-7082. * P<0.05 compared to WT; †P<0.05 for treated vs. untreated Dsg2^mut/mut mice.
To characterize production of chemical mediators of the immune response in ACM, we used arrays to measure 111 different cytokines in the hearts of Dsg2^mut/mut mice and compared the amounts to those measured in the hearts of WT mice and Dsg2^mut/mut mice treated with Bay 11-7082. We observed substantial expression of multiple cytokines in the hearts of Dsg2^mut/mut mice. […] Powerful inflammatory mediators were expressed in Dsg2^mut/mut hearts including IL-1β (up by ~13-fold compared to WT hearts), IFNγ (~5-fold), IL-12 (~6-fold) and TNFα (~2-fold). […] Finally, there were increases in some molecules that fulfill anti-inflammatory roles such as IL-1Ra (up by ~4-fold).

[1] = cytokine expression level, mouse heart

Cc1ccc(S(=O)(=O)/C=C/C#N)cc1 [Bay11-7082]
IL-1β (IL-1F2), Dsg2^mut/mut (Bay11-7082) vs Dsg2^mut/mut [1]: <1
IL-1β (IL-1F2), Dsg2^mut/mut (Bay11-7082) vs WT [1]: 6-10
IL-2, Dsg2^mut/mut (Bay11-7082) vs Dsg2^mut/mut [1]: <1
IL-2, Dsg2^mut/mut (Bay11-7082) vs WT [1]: <1
IL-3, Dsg2^mut/mut (Bay11-7082) vs Dsg2^mut/mut [1]: <1
IL-3, Dsg2^mut/mut (Bay11-7082) vs WT [1]: <1
IL-4, Dsg2^mut/mut (Bay11-7082) vs Dsg2^mut/mut [1]: <1
IL-4, Dsg2^mut/mut (Bay11-7082) vs WT [1]: <1
IL-5, Dsg2^mut/mut (Bay11-7082) vs Dsg2^mut/mut [1]: <1
IL-5, Dsg2^mut/mut (Bay11-7082) vs WT [1]: <1
IL-6, Dsg2^mut/mut (Bay11-7082) vs Dsg2^mut/mut [1]: <1
IL-6, Dsg2^mut/mut (Bay11-7082) vs WT [1]: <1
IL-7, Dsg2^mut/mut (Bay11-7082) vs Dsg2^mut/mut [1]: <1
IL-7, Dsg2^mut/mut (Bay11-7082) vs WT [1]: <1
IL-10, Dsg2^mut/mut (Bay11-7082) vs Dsg2^mut/mut [1]: <1
IL-10, Dsg2^mut/mut (Bay11-7082) vs WT [1]: <1
IL-11, Dsg2^mut/mut (Bay11-7082) vs Dsg2^mut/mut [1]: <1
IL-11, Dsg2^mut/mut (Bay11-7082) vs WT [1]: <1
IL-12 p40, Dsg2^mut/mut (Bay11-7082) vs Dsg2^mut/mut [1]: <1
IL-12 p40, Dsg2^mut/mut (Bay11-7082) vs WT [1]: 1-2
IL-13, Dsg2^mut/mut (Bay11-7082) vs Dsg2^mut/mut [1]: <1
IL-13, Dsg2^mut/mut (Bay11-7082) vs WT [1]: 1-2
IL-15, Dsg2^mut/mut (Bay11-7082) vs Dsg2^mut/mut [1]: <1
IL-15, Dsg2^mut/mut (Bay11-7082) vs WT [1]: 2-4
IL-17a, Dsg2^mut/mut (Bay11-7082) vs Dsg2^mut/mut [1]: <1
IL-17a, Dsg2^mut/mut (Bay11-7082) vs WT [1]: <1
IL-22, Dsg2^mut/mut (Bay11-7082) vs Dsg2^mut/mut [1]: <1
IL-22, Dsg2^mut/mut (Bay11-7082) vs WT [1]: <1
IL-23, Dsg2^mut/mut (Bay11-7082) vs Dsg2^mut/mut [1]: <1
IL-23, Dsg2^mut/mut (Bay11-7082) vs WT [1]: <1
IL-27 p28, Dsg2^mut/mut (Bay11-7082) vs Dsg2^mut/mut [1]: <1
IL-27 p28, Dsg2^mut/mut (Bay11-7082) vs WT [1]: <1
IL-28A/B, Dsg2^mut/mut (Bay11-7082) vs Dsg2^mut/mut [1]: <1
IL-28A/B, Dsg2^mut/mut (Bay11-7082) vs WT [1]: 1-2
IL-33, Dsg2^mut/mut (Bay11-7082) vs Dsg2^mut/mut [1]: <1
IL-33, Dsg2^mut/mut (Bay11-7082) vs WT [1]: 2-4
IP-10 (CXL10/CRG-2), Dsg2^mut/mut (Bay11-7082) vs Dsg2^mut/mut [1]: <1
IP-10 (CXL10/CRG-2), Dsg2^mut/mut (Bay11-7082) vs WT [1]: <1
KC (CXCL1), Dsg2^mut/mut (Bay11-7082) vs Dsg2^mut/mut [1]: <1
KC (CXCL1), Dsg2^mut/mut (Bay11-7082) vs WT [1]: <1
LDL R, Dsg2^mut/mut (Bay11-7082) vs Dsg2^mut/mut [1]: 1-2
LDL R, Dsg2^mut/mut (Bay11-7082) vs WT [1]: 1-2
LIF, Dsg2^mut/mut (Bay11-7082) vs Dsg2^mut/mut [1]: <1
LIF, Dsg2^mut/mut (Bay11-7082) vs WT [1]: <1
LIX, Dsg2^mut/mut (Bay11-7082) vs Dsg2^mut/mut [1]: <1
LIX, Dsg2^mut/mut (Bay11-7082) vs WT [1]: >10
Leptin, Dsg2^mut/mut (Bay11-7082) vs Dsg2^mut/mut [1]: <1
Leptin, Dsg2^mut/mut (Bay11-7082) vs WT [1]: 1-2
Lipocalin-2/NGAL, Dsg2^mut/mut (Bay11-7082) vs Dsg2^mut/mut [1]: <1
Lipocalin-2/NGAL, Dsg2^mut/mut (Bay11-7082) vs WT [1]: <1
M-CSF, Dsg2^mut/mut (Bay11-7082) vs Dsg2^mut/mut [1]: 1-2
M-CSF, Dsg2^mut/mut (Bay11-7082) vs WT [1]: >20
MCP-5 (CCL12), Dsg2^mut/mut (Bay11-7082) vs Dsg2^mut/mut [1]: <1
MCP-5 (CCL12), Dsg2^mut/mut (Bay11-7082) vs WT [1]: <1
MIP-2 (CXCL2), Dsg2^mut/mut (Bay11-7082) vs Dsg2^mut/mut [1]: <1
MIP-2 (CXCL2), Dsg2^mut/mut (Bay11-7082) vs WT [1]: <1
MMP-2, Dsg2^mut/mut (Bay11-7082) vs Dsg2^mut/mut [1]: 1-2
MMP-2, Dsg2^mut/mut (Bay11-7082) vs WT [1]: 4-6
MMP-3, Dsg2^mut/mut (Bay11-7082) vs Dsg2^mut/mut [1]: 1-2
MMP-3, Dsg2^mut/mut (Bay11-7082) vs WT [1]: <1
MMP-9, Dsg2^mut/mut (Bay11-7082) vs Dsg2^mut/mut [1]: <1
MMP-9, Dsg2^mut/mut (Bay11-7082) vs WT [1]: <1
Myeloperoxidase, Dsg2^mut/mut (Bay11-7082) vs Dsg2^mut/mut [1]: <1
Myeloperoxidase, Dsg2^mut/mut (Bay11-7082) vs WT [1]: 2-4
Osteopontin (OPN), Dsg2^mut/mut (Bay11-7082) vs Dsg2^mut/mut [1]: <1
Osteopontin (OPN), Dsg2^mut/mut (Bay11-7082) vs WT [1]: 4-6
Osteoprotegerin/TNFRSF11B, Dsg2^mut/mut (Bay11-7082) vs Dsg2^mut/mut [1]: <1
Osteoprotegerin/TNFRSF11B, Dsg2^mut/mut (Bay11-7082) vs WT [1]: <1
P-Selectin/CD62P, Dsg2^mut/mut (Bay11-7082) vs Dsg2^mut/mut [1]: <1
P-Selectin/CD62P, Dsg2^mut/mut (Bay11-7082) vs WT [1]: >10
PD-EGF/Thymidine phosphorylase, Dsg2^mut/mut (Bay11-7082) vs Dsg2^mut/mut [1]: <1
PD-EGF/Thymidine phosphorylase, Dsg2^mut/mut (Bay11-7082) vs WT [1]: <1
PDGF-BB, Dsg2^mut/mut (Bay11-7082) vs Dsg2^mut/mut [1]: <1
PDGF-BB, Dsg2^mut/mut (Bay11-7082) vs WT [1]: 1-2
Pentraxin 2/SAP, Dsg2^mut/mut (Bay11-7082) vs Dsg2^mut/mut [1]: <1
Pentraxin 2/SAP, Dsg2^mut/mut (Bay11-7082) vs WT [1]: 1-2
Pentraxin 3/TSG-14, Dsg2^mut/mut (Bay11-7082) vs Dsg2^mut/mut [1]: <1
Pentraxin 3/TSG-14, Dsg2^mut/mut (Bay11-7082) vs WT [1]: <1
Periostin/OSF-2, Dsg2^mut/mut (Bay11-7082) vs Dsg2^mut/mut [1]: <1
Periostin/OSF-2, Dsg2^mut/mut (Bay11-7082) vs WT [1]: <1
Pref-1/DLK-1/FA1, Dsg2^mut/mut (Bay11-7082) vs Dsg2^mut/mut [1]: <1
Pref-1/DLK-1/FA1, Dsg2^mut/mut (Bay11-7082) vs WT [1]: 6-10
Proliferin, Dsg2^mut/mut (Bay11-7082) vs Dsg2^mut/mut [1]: <1
Proliferin, Dsg2^mut/mut (Bay11-7082) vs WT [1]: 6-10
Proprotein Convertase 9/PCSK9, Dsg2^mut/mut (Bay11-7082) vs Dsg2^mut/mut [1]: 1-2
Proprotein Convertase 9/PCSK9, Dsg2^mut/mut (Bay11-7082) vs WT [1]: <1
RAGE, Dsg2^mut/mut (Bay11-7082) vs Dsg2^mut/mut [1]: <1
RAGE, Dsg2^mut/mut (Bay11-7082) vs WT [1]: <1
RBP4, Dsg2^mut/mut (Bay11-7082) vs Dsg2^mut/mut [1]: <1
RBP4, Dsg2^mut/mut (Bay11-7082) vs WT [1]: 1-2
Reg3G, Dsg2^mut/mut (Bay11-7082) vs Dsg2^mut/mut [1]: <1
Reg3G, Dsg2^mut/mut (Bay11-7082) vs WT [1]: 6-10
Resistin, Dsg2^mut/mut (Bay11-7082) vs Dsg2^mut/mut [1]: <1
Resistin, Dsg2^mut/mut (Bay11-7082) vs WT [1]: 2-4
Serpin E1/PAI-1, Dsg2^mut/mut (Bay11-7082) vs Dsg2^mut/mut [1]: <1
Serpin E1/PAI-1, Dsg2^mut/mut (Bay11-7082) vs WT [1]: 6-10
Serpin F1/PEDF, Dsg2^mut/mut (Bay11-7082) vs Dsg2^mut/mut [1]: <1
Serpin F1/PEDF, Dsg2^mut/mut (Bay11-7082) vs WT [1]: <1
TIM-1/KIM-1/HAVCR, Dsg2^mut/mut (Bay11-7082) vs Dsg2^mut/mut [1]: 1-2
TIM-1/KIM-1/HAVCR, Dsg2^mut/mut (Bay11-7082) vs WT [1]: <1
TNF-α, Dsg2^mut/mut (Bay11-7082) vs Dsg2^mut/mut [1]: <1
TNF-α, Dsg2^mut/mut (Bay11-7082) vs WT [1]: 1-2
Thrombopoeitin, Dsg2^mut/mut (Bay11-7082) vs Dsg2^mut/mut [1]: 1-2
Thrombopoeitin, Dsg2^mut/mut (Bay11-7082) vs WT [1]: <1
VCAM-1/CD106, Dsg2^mut/mut (Bay11-7082) vs Dsg2^mut/mut [1]: 1-2
VCAM-1/CD106, Dsg2^mut/mut (Bay11-7082) vs WT [1]: 6-10
VEGF, Dsg2^mut/mut (Bay11-7082) vs Dsg2^mut/mut [1]: 1-2
VEGF, Dsg2^mut/mut (Bay11-7082) vs WT [1]: <1
WISP-1/CCN4, Dsg2^mut/mut (Bay11-7082) vs Dsg2^mut/mut [1]: <1
WISP-1/CCN4, Dsg2^mut/mut (Bay11-7082) vs WT [1]: <1
sICAM-1 (CD54), Dsg2^mut/mut (Bay11-7082) vs Dsg2^mut/mut [1]: <1
sICAM-1 (CD54), Dsg2^mut/mut (Bay11-7082) vs WT [1]: 1-2
increased expression of cytokines in Dsg2^mut/mut hearts (treated vs untreated Dsg2^mut/mut mice, FIG. 1, result in words): attenuation; also recorded: blunted or fully normalized

Source: patent US12708665B2, “Anti-IL-1β antibody therapy in arrhythmogenic cardiomyopathy (ACM)” (Beth Israel Deaconess Medical Center, Inc., priority 2019, dated 2026)
